# Reference: patent US20260102377A1, “COMPOSITIONS AND METHODS FOR TREATING MYASTHENIA GRAVIS” (priority 2022, published 2026)
# Values joined by “and” are separate entries in the source; they are usually repeats but may differ in a detail not shown here. Equal entries are not always repeated.
# Tested on: EAMG rats
# Test: Grip strength test after single dose of Mestinon and CIC-1 inhibitor alone or in combination
# Assay type: in vivo, rat
# Conditions: per oral, 45 minutes post dosing, 0.375 mg/kg Mestinon, 20 mg/kg NMD670 or both
# Experimental: To induce EAMG, 250 μL of emulsion of Complete Freund's Adjuvant, consisting of heat-inactivated Mycobacterium tuberculosis H37Ra in non-metabolizable oils, together with Phosphate-Buffered Saline (PBS) and 80 μg of the extracellular α-domain peptide fragment of the human nicotinic acetylcholine receptor (antigen) was injected subcutaneously in seven-week-old, anaesthetized Lewis rats. The disease-inducing antigen was supplied by the Hellenic Pasteur institute3. The emulsion was deposited at the tail base, left hindleg, and right foreleg. After injection, animals were allowed to recover and returned to their home cage maintained in ventilated racks under controlled temperature (20 to 22° C.) and humidity (˜55%) control, under a 12-h light/12-h dark cycle with food and water provided ad libitum. The animals had pathogen free status and the housing and changing system was designed to assure that the pathogen free status was preserved during the study. The EAMG rats were observed, weighed, and scored for MG symptoms weekly until symptoms of MG developed, whereafter animals were observed daily.
# In EAMG animals with severe MG symptoms the effects of CIC-1 inhibitor and Mestinon (pyridostigmine) alone or in combination was assessed. […] The study was blinded to both the experimenter and during subsequent analysis. Animals were subjected to grip strength test before compound administration, as described above and then dosed per oral with either 0.375 mg/kg pyridostigmine bromide (Mestinon) (CAS-no 101-26-8), 20 mg/kg NMD670 or a combination of both pyridostigmine and NMD670. Grip strength was tested 45 minutes post dosing. […] The change in grip strengths was calculated for individual animals relative to the results obtained prior to administration of test article and then averaged.
# Grip strength was measured on a BIOSEB BIO-GT3 Grip strength meter (force transducer, S/N 180271). […] Care was taken to ensure that the force recorded reflected the grip strength of the rat and not the force of the pulls conducted by the operator. […]
smiles,measurement,value
"CN(C)C(=O)Oc1ccc[n+](C)c1 [Mestinon, pyridostigmine bromide, reference compound]",Increase in Pulled Force (%),5±4% and 5.3 ± 3.8%
